Read-outs that look alike come from different tables or passages of the source.
Tests used:
PfGCN5 bromodomain [1] = target: T1, PfGCN5 bromodomain (Plasmodium falciparum, UniProt Q8IB67); test: 1H CPMG NMR deconvolution of hit mixtures, PfGCN5; format: binding; settings: 10 µM protein, 100 µM ligand; for 1H CPMG NMR % Drop in Resonance Intensity PfGCN5: for 9 from competition experiments (footnote a)
Procedure: (§1) The second step is a ^1H CPMG NMR deconvolution of the hit mixtures using the non-fluorine-labeled bromodomains. ^1H CPMG NMR employs a T2 filter to take advantage of the difference in transverse relaxation time between protein and small molecules to filter out the bound-state ligand(s). Unlike the PrOF NMR assay, a single protein is assayed in each experiment. A binding event is characterized by a decrease in ligand resonance intensity from the ligand alone spectrum to the ligand + protein spectrum. A hit is defined as a decrease in resonance intensity ≥ 20%. The ^1H CPMG NMR assay can be tuned by changing the protein or ligand concentration, filter length (Figure 1), or hit criteria depending on how stringent the desired hit rate is. The number of ^1H CPMG NMR deconvolution experiments is directly informed from the first step. If a mixture from the first step was only a hit for one protein, a single ^1H CPMG NMR deconvolution experiment is needed. If a mixture from the first step was a hit for both proteins, two separate ^1H CPMG NMR deconvolutions experiments are needed to determine the fragments that bind to each protein.
(§2) ^1H CPMG NMR. ^1H CPMG NMR screen data were acquired on Bruker Avance III HD 500 with the 5 mm Prodigy TCI cryoprobe inverse cryoprobe (^1H 2500:1 S/N). Competition ^1H CPMG NMR data were acquired on Bruker 700 MHz Avance with a CryoProbe 5 mm TXI (^1H S:N with H2O suppression (2mM sucrose) - 900:1) and excitation sculpting water suppression. Proteins were present at 10 µM in 50 mM phosphate, 100 mM NaCl, pH 7.4 in 100% D2O. In separate NMR tubes, a ^1H CPMG NMR pulse was applied to a 1) mixture of ligands (individual ligands present at 100 µM for the screen and 50 µM for competition experiments) and 2) ligands + protein. […] For the competition experiments, τ was increased to 4.0 ms.

BRD4 D1 = settings: cited from earlier work
PfGCN5 bromodomain [2] = target: T1, PfGCN5 bromodomain; test: biochemical; format: binding; settings: for Kd: PrOF NMR titration, for 9 average of W1454 and W1379, NS = non-saturating, read-out: PfGCN5 Kd; for Initial Mixture PfGCN5 PrOF NMR Δδ: hit mixture containing the fragment, 400 µM each fragment
Procedure: (§3) The screening workflow consists of two dependent steps: 1) a PrOF NMR screen of the 5FW-labeled proteins and a cocktail of 4–5 fragments in a single NMR tube; 2) a ^1H CPMG NMR binding assay to deconvolute the hit mixtures for each protein (Figure 1). In the first step, a dual-protein PrOF NMR spectrum was obtained in which 5FW-PfGCN5, 5FW-BPTF (~ 50 µM each) and mixtures of fragments (400 µM individual fragment) were present in the same NMR tube. […] Chemical shift perturbations indicating a ligand binding event were based on a prior cutoff of Δδ ≥ 0.030 ppm as the definition for a hit mixture. This cutoff was based on a statistical analysis of chemical shift perturbations from a prior BRD4 D1 fragment screen and are described further in the experimental section and in Table S2.
(§4) PrOF NMR. PrOF NMR spectra were obtained on a Bruker Avance III HD 500 with the 5 mm Prodigy TCI inverse cryoprobe (^19F S:N 2000:1). […] The DMSO concentration for all experiments was kept constant at 1%. […] For the PrOF NMR screen, 5FW-BPTF and 5FW-PfGCN5 (35–40 µM in 50 mM phosphate, 100 mM NaCl, pH 7.4) were tested with mixtures of 4–5 fragments, where each individual fragment was 400 µM. […] A 10 Hz line broadening was applied. Titrations were fit to Equation (2), where p is the protein concentration and L is the ligand concentration. (2) Δδ=Δδmax × (Kd+P+L ) − (((Kd + P + L )^2) − 4PL)/2P
(§5) A PrOF NMR binding event is characterized as a change in chemical shift (Δδ) from the protein-only spectrum to the protein + fragment mixture spectrum. We used a prior cutoff of Δδ ≥ 0.030 ppm as the definition of a hit mixture, based on a statistical analysis of chemical shift perturbations from a prior BRD4 D1 fragment screen.

BPTF bromodomain [3] = target: T2, BPTF bromodomain (Homo sapiens, UniProt Q12830); test: PrOF NMR (dual-protein screen of mixtures, titrations) with 5FW-BPTF; format: binding; design: against the bromodomains of BPTF and Plasmodium falciparum GCN5 (PfGCN5); his6; made in house; settings: for Initial Mixture BPTF PrOF NMR Δδ: hit mixture containing the fragment, 400 µM each fragment
Procedure: as §3, §4, §5

BPTF bromodomain [4] = target: T2, BPTF bromodomain; test: 1H CPMG NMR deconvolution of hit mixtures, BPTF; format: binding; design: deconvolution of the hit mixtures using the non-fluorine-labeled bromodomains; made in house; host or cells: E. coli BL21(DE3); settings: 10 µM protein, 100 µM ligand; for 1H CPMG NMR % Drop in Resonance Intensity BPTF: for 9 from competition experiments (footnote a)
Procedure: as §1, §2

PfGCN5 bromodomain [5] = target: T1, PfGCN5 bromodomain; test: Competition 1H CPMG NMR with PfGCN5; format: binding; settings: competitor at or above the protein concentration
Text: The competition ^1H CPMG NMR and PrOF NMR assays were employed to further probe the binding mode of 9 to PfGCN5. […] At high concentrations, at or above the protein concentration, the competition maxed out at ~ 50% (Figure 2, Figure S10, Table S5). Conversely, TP-238 was able to compete 9 off from BPTF at low concentrations.
^1H CPMG NMR. ^1H CPMG NMR screen data were acquired on Bruker Avance III HD 500 with the 5 mm Prodigy TCI cryoprobe inverse cryoprobe (^1H 2500:1 S/N). Competition ^1H CPMG NMR data were acquired on Bruker 700 MHz Avance with a CryoProbe 5 mm TXI (^1H S:N with H2O suppression (2mM sucrose) - 900:1) and excitation sculpting water suppression. Proteins were present at 10 µM in 50 mM phosphate, 100 mM NaCl, pH 7.4 in 100% D2O. In separate NMR tubes, a ^1H CPMG NMR pulse was applied to a 1) mixture of ligands (individual ligands present at 100 µM for the screen and 50 µM for competition experiments) and 2) ligands + protein. For competition experiments, the ligands were used individually, and the competitor ligands were spiked into tube 2. ^1H CPMG NMR parameters for the screen: NS = 128, acquisition time = 2 s, τ = 2.5 ms, and L = 120. For the competition experiments, τ was increased to 4.0 ms.

[6] = PrOF NMR titration, NS = non-saturating, NB = no binding
[7] = previous screen, NC = noncompetitive with JQ1 in 1H CPMG competition

T1 sequence (Q8IB67 entry or part of it): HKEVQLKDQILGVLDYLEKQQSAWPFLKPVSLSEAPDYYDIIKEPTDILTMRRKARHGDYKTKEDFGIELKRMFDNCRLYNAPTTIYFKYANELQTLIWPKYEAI

Structure (SMILES)	PfGCN5 CPMG % decrease (PfGCN5 bromodomain [1])	Kd (BRD4 D1; data from previous screen)	Initial Mixture PfGCN5 PrOF NMR Δδ (PfGCN5 bromodomain [2])	Initial Mixture BPTF PrOF NMR Δδ (BPTF bromodomain [3])	BPTF CPMG % decrease (BPTF bromodomain [4])	Kd (BRD4 D1; [7])	other results
N#Cc1cccc(C(=O)NC2CCC3OCCOC3C2)c1 (stereo not drawn) [Fragment 1]	100%	> 400 µM	++ (++ = 0.050 < Δδ < 0.099)	- (For PrOF NMR = Δδ < 0.029 ppm)	–	–	1H CPMG NMR % Drop in Resonance Intensity PfGCN5 (PfGCN5 bromodomain [1]): +++++ (+++++ = 100%); Kd (PfGCN5 bromodomain [2]): > 1000 µM
COC(=O)N1CCC(CNC(=O)c2ccco2)CC1 [Fragment 2]	100%	450 µM	+++ (+++ = 0.1 < Δδ < 0.199)	++ (++ = 0.050 < Δδ < 0.099)	–	–	1H CPMG NMR % Drop in Resonance Intensity PfGCN5 (PfGCN5 bromodomain [1]): +++++ (+++++ = 100%); Kd (PfGCN5 bromodomain [2]): 360 µM
CCC(=O)NCc1nccc(N(C)C)n1 [Fragment 3]	82%	> 400 µM	++++ (++++ = Δδ > 0.2)	- (For PrOF NMR = Δδ < 0.029 ppm)	–	–	1H CPMG NMR % Drop in Resonance Intensity PfGCN5 (PfGCN5 bromodomain [1]): ++++ (++++ = 80–99.9%); Kd (PfGCN5 bromodomain [2]): > 1000 µM
Cc1ccc2c(C#N)c(N)sc2c1 [Fragment 4]	–	> 400 µM	- (For PrOF NMR = Δδ < 0.029 ppm)	+ (+ = 0.030 < Δδ < 0.049)	100%	–	1H CPMG NMR % Drop in Resonance Intensity BPTF (BPTF bromodomain [4]): +++++ (+++++ = 100%); BPTF Kd (BPTF bromodomain [3]; [6]): no binding; Kd (BPTF bromodomain [3]; [6]): > 1 mM
CC(C)CNc1ncc([N+](=O)[O-])c(N)n1 [Fragment 5]	–	> 400 µM	- (For PrOF NMR = Δδ < 0.029 ppm)	++ (++ = 0.050 < Δδ < 0.099)	65%	–	1H CPMG NMR % Drop in Resonance Intensity BPTF (BPTF bromodomain [4]): +++ (+++60–80%); Kd (BPTF bromodomain [3]; [6]): > 1 mM
Cc1cccc(NC(=O)C2CCN(S(C)(=O)=O)CC2)c1 [Fragment 6]	–	> 400 µM	- (For PrOF NMR = Δδ < 0.029 ppm)	+ (+ = 0.030 < Δδ < 0.049)	25%	–	1H CPMG NMR % Drop in Resonance Intensity BPTF (BPTF bromodomain [4]): + (+ = 20–39.9%); Bind BRD4? (BRD4 D1; Y/N, previous screen): not bind; selectivity, binds PfGCN5 over BPTF (PfGCN5 bromodomain [2]; ratio of Kd values): > 6 fold; Kd (BPTF bromodomain [3]; [6]): 0.54 mM
CS(=O)(=O)N1CCC2(CC1)OC(=O)c1ccccc12 [Fragment 7]	100%	> 400 µM	+++ (+++ = 0.1 < Δδ < 0.199)	+++ (+++ = 0.1 < Δδ < 0.199)	49%	–	1H CPMG NMR % Drop in Resonance Intensity BPTF (BPTF bromodomain [4]): ++ (++ = 40–59.9%); 1H CPMG NMR % Drop in Resonance Intensity PfGCN5 (PfGCN5 bromodomain [1]): +++++ (+++++ = 100%); Kd (PfGCN5 bromodomain [2]): 150 µM; Kd (BPTF bromodomain [3]; PrOF NMR titration): > 1 mM
CCOC(=O)c1c(NC(C)=O)sc(C)c1C [Fragment F0777-0038]	100%	–	–	–	100%	820 µM	–
CCOC(=O)c1sc(NC(=O)C2CCOC2)cc1C (stereo not drawn) [Fragment F0882-2747]	63%	–	–	–	54%	660 µM	–
CCCC(=O)Nc1cc2c3c(c1)CC(=O)N3CCC2 [Fragment F2666-0003]	100%	–	–	–	54%	840 µM	–
CCCCNc1nc2c([nH]1)c(=O)n(C)c(=O)n2C [Fragment F3176-0122]	77%	–	–	–	80%	2500 µM	–
Cc1cc(-c2nnc(NC(=O)C3CC3)o2)nn1C [Fragment F5036-0073]	–	–	–	–	55%	1200 µM	–
CN1C[C@H](Nc2cnn(C)c(=O)c2Br)C[C@H](c2ccccc2)C1 [GSK4027, reference compound]	–	–	–	–	–	–	PrOF NMR titration with 5FW-PfGCN5, result in words (PfGCN5 bromodomain [2]): binds PfGCN5 strongly; competition maximum in 1H CPMG NMR competition with 9 (PfGCN5 bromodomain [5]): ~ 50%
Cc1nnc2c3ccccc3c(N[C@@H](C)[C@H](c3ccccc3)N(C)C)nn12 [L-Moses, reference compound]	–	–	–	–	–	–	competition maximum in 1H CPMG NMR competition with 9 (PfGCN5 bromodomain [5]): ~ 50%
CCOC(=O)Nc1cc(-c2ccc(C)c(NS(C)(=O)=O)c2)nn2c(C)nnc12 [bromosporine, reference compound]	–	–	–	–	–	–	PrOF NMR titration with 5FW-PfGCN5, result in words (PfGCN5 bromodomain [2]): slow exchange kinetics

From PMC7504435, “Combined Protein- and Ligand-Observed NMR Workflow to Screen Fragment Cocktails against Multiple Proteins: A Case Study Using Bromodomains” (Molecules, 2020)
